# Test results: patent publication US20260000658A1, “METHODS FOR THE TREATMENT OF PROLIFERATIVE GLOMERULONEPHRITIS” (INSTITUT NATIONAL DE LA SANTÉ ET DE LA RECHERCHE MÉDICALE, priority 2022, published 2026)
# Columns and labels:
# Type in all cases: in vivo, mouse
# MRL-lpr mice = assay: MRL-lpr mice, 12 weeks old, treated for 4 weeks
# Protocol: (§1) For the uninephrectomy experiments, the right kidneys were removed under anesthesia. For the medical treatment of mice, 50 mg kg −1 alpelisib (MedChem Tronica) in 1% carboxymethylcellulose (Sigma Aldrich)+0.5% Tween (Sigma Aldrich) or vehicle (1% carboxymethylcellulose+0.5% Tween) was administered by oral gavage daily for the indicated periods of time. Blood and urines were obtained at the indicated times. At euthanasia, blood, urines, kidneys were harvested. In some experiments, spleens, hearts, and bone marrow (BM) in femurs and tibias were harvested as well. Tissues were fixed in 4% paraformaldehyde and paraffin embedded for immunohistochemical analysis, snap-frozen in Optimal Cutting Temperature (OCT), or stored at −80° C. for mRNA or protein analysis.
# (§2) Mouse blood counts were analyzed using a hematology analyzer (ProCyte Dx; IDEXX Laboratories). Mouse serum creatinine, blood urea nitrogen, urinary albumin, and urinary creatinine were evaluated using an AU5800 (Beckman Coulter) autoanalyzer. Serum anti-dsDNA measurement was performed according to the manufacturer's instruction using mouse anti-dsDNA ELISA kit (LBIS). The absorbance was measured using Ininite M Nano (TECAN).
# (§3) 4-μm kidney sections were stained with periodic acid-Schiff (PAS), Masson's Trichrome (MT), Periodic acid metenamine silver (PAM) or Hematoxylin and Eosin (HE) staining for histological analysis. The degree of glomerular lesions was evaluated using the following scoring system: 0=no lesion, 1=affecting up to 25% of the glomerulus, 2=affecting 25-50% of the glomerulus, 3=affecting 50-75% of the glomerulus, and 4=affecting 75-100%. At least 50 glomeruli per sample were measured for each analysis. An indirect immunoperoxidase method was used for immunohistochemistry. Briefly, after deparaffinization, antigen retrieval was performed with citrate buffer (pH6) or Tris-EDTA buffer (pH9 or pH6) using microwave or high temperature (95° C.). Endogenous peroxidase activity was quenched using 3% hydrogen peroxide; nonspecific protein binding was blocked using 2.5% normal horse serum (Vector Laboratories), and endogenous biotin activity was quenched using the Avidin/Biotin Blocking Kit (Vector Laboratories). When using mouse primary antibodies on mouse tissue, Klear mouse blocking reagent (Diagomics) was used to block endogenous mouse immunoglobulins. After blocking, the tissue sections were incubated with the primary antibodies overnight at 4° C. The following primary antibodies were used: rabbit anti-Ki67 antibody (SP6; Thermo Fisher Scientific), rabbit anti-P-S6RP antibody (D68F8; Cell Signaling Technology), mouse anti-P-AKT (Ser473) antibody (587F11; Cell Signaling Technology), rabbit anti-P-AKT (Thr308) antibody (C31E5E; Cell Signaling Technology), mouse anti-S6RP antibody (54E2; Cell Signaling Technology), chicken anti-GFP antibody (Abcam), guinea pig anti-Nephrin antibody (GP-N2; Progen), rabbit anti-Podocin antibody (P0372; Sigma Aldrich), mouse anti-WTI antibody (6F-H2; DAKO). The corresponding secondary antibodies including anti-mouse IgG, anti-rabbit IgG, anti-guinea pig IgG, biotinylated anti-rabbit IgG (Vector Laboratories), and biotinylated anti-mouse IgG (Vector Laboratories) were applied. For Avidin/Biotin detection, an R.T.U. Vectastain Kit (Vector Laboratories) or streptavidin (Thermo Fisher Scientific) was used. The immunoreactive antigens sites were detected with hydrogen peroxide and diaminobenzidine. For frozen immunofluorescent staining, frozen tissue sections (4 μm) were briefly air dried and fixed in 50% methanol/50% acetone. The sections were then blocked with 2.5% normal horse serum and incubated with primary antibodies: guinea pig anti-Nephrin antibody (GP-N2; Progen) overnight at 4° C. The sections were then incubated at room temperature for 40 min with secondary antibodies: fluorescein isothiocyanate-conjugated (FITC) anti-mouse IgG (Sigma Aldrich), FITC anti-mouse IgM (BD Biosciences), or FITC anti-mouse C3 antibody (abcam). […]
# PIK3CA^Pod-HO mice = PIK3CA^Pod-HO mice pilot study, vehicle or alpelisib; conditions: 3 months old
# Protocol: as §1, §2
# as §3, with “diaminobenzidine.” for “diaminobenzidine. For frozen immunofluorescent staining, frozen tissue sections (4 μm) were briefly air dried and fixed in 50% methanol/50% acetone. The sections were then blocked with 2.5% normal horse serum and incubated with primary antibodies: guinea pig anti-Nephrin antibody (GP-N2; Progen) overnight at 4° C. The sections were then incubated at room temperature for 40 min with secondary antibodies: fluorescein isothiocyanate-conjugated (FITC) anti-mouse IgG (Sigma Aldrich), FITC anti-mouse IgM (BD Biosciences), or FITC anti-mouse C3 antibody (abcam).”
# [1] = tested on: uninephrectomized Tg26^HE mice; assay: Uninephrectomized Tg26^HE mice (accelerated collapsing glomerulopathy model), vehicle or alpelisib for 4 weeks
# Protocol: Scale bar P-S6RP, and P-AKTSer473 mean intensity quantification (n=5-6 mice per group). P. Serum creatinine level, and Blood urea nitrogen level of Tg26WT and Tg26HE mice at the time of sacrifice (4 weeks following uninephrectomy and treated either with vehicle or alpelisib) (n=8-9 mice per group)
# as §1, §2
# as §3, with “acetone.” for “acetone. The sections were then blocked with 2.5% normal horse serum and incubated with primary antibodies: guinea pig anti-Nephrin antibody (GP-N2; Progen) overnight at 4° C. The sections were then incubated at room temperature for 40 min with secondary antibodies: fluorescein isothiocyanate-conjugated (FITC) anti-mouse IgG (Sigma Aldrich), FITC anti-mouse IgM (BD Biosciences), or FITC anti-mouse C3 antibody (abcam).”
compound,measurement,setting,value
"Cc1nc(NC(=O)N2CCC[C@H]2C(N)=O)sc1-c1ccnc(C(C)(C)C(F)(F)F)c1 [alpelisib, Alpelisib]",proteinuria,"MRL-lpr mice; 12 weeks old females, 4 consecutive weeks",proteinuria reduction
same,Cola1 and Cola3 mRNA expression,"MRL-lpr mice; 12 weeks old, 4 weeks",improved
same,dsDNA antibodies,"MRL-lpr mice; 12 weeks old, 4 weeks",significantly reduced
same,glomerular AKT/mTOR pathway,"MRL-lpr mice; 12 weeks old, 4 weeks",inhibited
same,glomerular lesion score,"MRL-lpr mice; 12 weeks old, 4 weeks",improved
same,expression of podocyte differentiation markers,MRL-lpr mice; vs vehicle,increased
same,albuminuria,PIK3CA^Pod-HO mice; 2 consecutive weeks,progressive albuminuria reduction
same,AKT/mTOR pathway in podocytes,PIK3CA^Pod-HO mice; 2 weeks,blunted
same,glomerulus proliferation (Ki67),PIK3CA^Pod-HO mice; 2 weeks,decrease in glomerulus proliferation
same,"podocyte differentiation markers, protein levels",PIK3CA^Pod-HO mice; 2 weeks,still expressed
same,"glomeruli, kidney histological analysis","PIK3CA^Pod-HO mice; 2 weeks, vs vehicle",preserved glomeruli
same,AKT/mTOR pathway in glomeruli,[1]; 4 weeks treatment,profoundly blunted
same,"expression of Col1a, Col3a and Lcn2",[1]; 4 weeks treatment,reduced expression
same,expression of podocyte markers,[1]; 4 weeks treatment,maintained expression of podocyte markers
same,"glomerular lesions, kidney histology",[1]; 4 weeks treatment,fewer glomerular lesions
same,ratio kidney/body weight,[1]; 4 weeks treatment,improved
same,albuminuria,"[1]; 4 weeks treatment, vs vehicle",significantly improved
same,"kidney function (serum creatinine, blood urea nitrogen)","[1]; 4 weeks treatment, vs vehicle",significantly improved
same,kidney lesions (title of FIG. 3),[1]; accelerated mouse model of collapsing glomerulopathy,improves kidney lesions
same,surfaces of the kidneys at sacrifice,"[1]; uninephrectomy at 4 weeks old, 4 weeks treatment",regular and smooth
